Experimental data published in ChEMBL document CHEMBL4507288 (2021).
The source made the active and inactive calls. No cut-off for these calls is given here.

How the values were obtained:
[1] = molecular target: Amyloid-beta precursor protein (Homo sapiens, UniProt P05067); test: Radioligand Binding Assay
[2] = molecular target: Activin receptor type-2A (Homo sapiens) (UniProt P27037); conditions: Compound concentration 1000.0 nM
[3] = molecular target: Activin receptor type-1-like (Homo sapiens) (UniProt P37023); conditions: Compound concentration 1000.0 nM
[4] = tested on: ALK tyrosine kinase receptor (Homo sapiens), Q9UM73 [C1156Y]; conditions: Compound concentration 1000.0 nM
[5] = molecular target: Aurora kinase B (Homo sapiens) (UniProt Q96GD4); conditions: Compound concentration 1000.0 nM
[6] = molecular target: Cytoplasmic tyrosine-protein kinase BMX (Homo sapiens) (UniProt P51813); conditions: Compound concentration 1000.0 nM
[7] = molecular target: Calcium/calmodulin-dependent protein kinase kinase 2 (Homo sapiens) (UniProt Q96RR4); conditions: Compound concentration 1000.0 nM
[8] = molecular target: Peripheral plasma membrane protein CASK (Homo sapiens) (UniProt O14936); conditions: Compound concentration 1000.0 nM
[9] = molecular target: Cyclin-dependent kinase 5 (Homo sapiens) (UniProt Q00535); conditions: Compound concentration 1000.0 nM
[10] = molecular target: Citron Rho-interacting kinase (Homo sapiens) (UniProt O14578); conditions: Compound concentration 1000.0 nM
[11] = molecular target: Casein kinase I isoform delta (Homo sapiens) (UniProt P48730); conditions: Compound concentration 1000.0 nM
[12] = molecular target: Casein kinase I isoform epsilon (Homo sapiens) (UniProt P49674); conditions: Compound concentration 1000.0 nM
[13] = molecular target: Death-associated protein kinase 2 (Homo sapiens) (UniProt Q9UIK4); conditions: Compound concentration 1000.0 nM
[14] = tested on: Epidermal growth factor receptor (Homo sapiens), P00533 [G719S]; conditions: Compound concentration 1000.0 nM
[15] = tested on: Epidermal growth factor receptor (Homo sapiens), P00533 [UNDEFINED MUTATION]; conditions: Compound concentration 1000.0 nM
[16] = molecular target: Eukaryotic translation initiation factor 2-alpha kinase 1 (Homo sapiens) (UniProt Q9BQI3); conditions: Compound concentration 1000.0 nM
[17] = molecular target: Ephrin type-A receptor 1 (Homo sapiens) (UniProt P21709); conditions: Compound concentration 1000.0 nM
[18] = molecular target: Ephrin type-A receptor 4 (Homo sapiens) (UniProt P54764); conditions: Compound concentration 1000.0 nM
[19] = molecular target: Ephrin type-B receptor 2 (Homo sapiens) (UniProt P29323); conditions: Compound concentration 1000.0 nM
[20] = molecular target: Ephrin type-B receptor 6 (Homo sapiens) (UniProt O15197); conditions: Compound concentration 1000.0 nM
[21] = tested on: eIF-2-alpha kinase GCN2 (Homo sapiens), Q9P2K8 [S808G]; conditions: Compound concentration 1000.0 nM
[22] = molecular target: Tyrosine-protein kinase HCK (Homo sapiens) (UniProt P08631); conditions: Compound concentration 1000.0 nM
[23] = molecular target: Homeodomain-interacting protein kinase 4 (Homo sapiens) (UniProt Q8NE63); conditions: Compound concentration 1000.0 nM
[24] = molecular target: Hormonally up-regulated neu tumor-associated kinase (Homo sapiens) (UniProt P57058); conditions: Compound concentration 1000.0 nM
[25] = molecular target: Insulin-like growth factor 1 receptor (Homo sapiens) (UniProt P08069); conditions: Compound concentration 1000.0 nM
[26] = molecular target: Interleukin-1 receptor-associated kinase 1 (Homo sapiens) (UniProt P51617); conditions: Compound concentration 1000.0 nM
[27] = molecular target: Mitogen-activated protein kinase 10 (Homo sapiens) (UniProt P53779); conditions: Compound concentration 1000.0 nM
[28] = tested on: Mast/stem cell growth factor receptor Kit (Homo sapiens), P10721 [L576P]; conditions: Compound concentration 1000.0 nM
[29] = molecular target: Mitogen-activated protein kinase kinase kinase kinase 2 (Homo sapiens) (UniProt Q12851); conditions: Compound concentration 1000.0 nM
[30] = molecular target: Mitogen-activated protein kinase kinase kinase kinase 5 (Homo sapiens) (UniProt Q9Y4K4); conditions: Compound concentration 1000.0 nM
[31] = molecular target: Serine/threonine-protein kinase MARK2 (Homo sapiens) (UniProt Q7KZI7); conditions: Compound concentration 1000.0 nM
[32] = molecular target: Hepatocyte growth factor receptor (Homo sapiens) (UniProt P08581); conditions: Compound concentration 1000.0 nM
[33] = molecular target: Mitogen-activated protein kinase kinase kinase 9 (Homo sapiens) (UniProt P80192); conditions: Compound concentration 1000.0 nM
[34] = molecular target: Serine/threonine-protein kinase 38 (Homo sapiens) (UniProt Q15208); conditions: Compound concentration 1000.0 nM
[35] = molecular target: Serine/threonine-protein kinase Nek5 (Homo sapiens) (UniProt Q6P3R8); conditions: Compound concentration 1000.0 nM
[36] = molecular target: Serine/threonine-protein kinase OSR1 (Homo sapiens) (UniProt O95747); conditions: Compound concentration 1000.0 nM
[37] = molecular target: Cyclin-dependent kinase 17 (Homo sapiens) (UniProt Q00537); conditions: Compound concentration 1000.0 nM
[38] = molecular target: Cyclin-dependent kinase 14 (Homo sapiens) (UniProt O94921); conditions: Compound concentration 1000.0 nM
[39] = molecular target: Serine/threonine-protein kinase D3 (Homo sapiens) (UniProt O94806); conditions: Compound concentration 1000.0 nM
[40] = molecular target: cAMP-dependent protein kinase catalytic subunit PRKX (Homo sapiens) (UniProt P51817); conditions: Compound concentration 1000.0 nM
[41] = molecular target: Receptor-interacting serine/threonine-protein kinase 2 (Homo sapiens) (UniProt O43353); conditions: Compound concentration 1000.0 nM
[42] = molecular target: Ribosomal protein S6 kinase alpha-3 (Homo sapiens) (UniProt P51812); conditions: Compound concentration 1000.0 nM
[43] = molecular target: Mitogen-activated protein kinase kinase kinase 20 (Homo sapiens) (UniProt Q9NYL2); conditions: Compound concentration 1000.0 nM
[44] = molecular target: 5-hydroxytryptamine receptor 7 (Homo sapiens, UniProt P34969); test: GPCRScan assay: inhibition of 5-HT7A; design: radioligand conc. used [nm] 5.0 – 6.0, parental cells Stable HEK
[45] = molecular target: Histamine H2 receptor (Homo sapiens, UniProt P25021); test: GPCRScan assay: inhibition of H2; design: radioligand conc. used [nm] 0.02 – 0.05, parental cells Stable HEK
[46] = molecular target: Alpha-2A adrenergic receptor (Homo sapiens, UniProt P08913); test: GPCRScan assay: inhibition of Alpha2A; design: radioligand conc. used [nm] 1.0 – 3.0, parental cells stable MDCK

5-hydroxytryptamine receptor 7, sequence (P34969 whole entry): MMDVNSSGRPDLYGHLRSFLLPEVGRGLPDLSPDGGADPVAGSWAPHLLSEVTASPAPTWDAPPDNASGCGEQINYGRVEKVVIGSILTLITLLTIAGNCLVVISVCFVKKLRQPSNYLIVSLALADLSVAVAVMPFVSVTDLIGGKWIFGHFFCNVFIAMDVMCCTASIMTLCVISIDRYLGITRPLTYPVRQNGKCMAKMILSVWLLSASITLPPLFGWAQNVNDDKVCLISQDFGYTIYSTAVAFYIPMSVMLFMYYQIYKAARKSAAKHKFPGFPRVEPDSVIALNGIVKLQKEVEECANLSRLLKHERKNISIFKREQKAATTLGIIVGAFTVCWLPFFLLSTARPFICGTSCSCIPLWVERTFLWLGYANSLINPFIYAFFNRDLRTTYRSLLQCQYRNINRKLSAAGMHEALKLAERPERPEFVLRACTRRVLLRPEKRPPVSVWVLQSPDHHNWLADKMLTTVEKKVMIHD
Cyclin-dependent kinase 17 (Homo sapiens), sequence (Q00537 whole entry, looked up): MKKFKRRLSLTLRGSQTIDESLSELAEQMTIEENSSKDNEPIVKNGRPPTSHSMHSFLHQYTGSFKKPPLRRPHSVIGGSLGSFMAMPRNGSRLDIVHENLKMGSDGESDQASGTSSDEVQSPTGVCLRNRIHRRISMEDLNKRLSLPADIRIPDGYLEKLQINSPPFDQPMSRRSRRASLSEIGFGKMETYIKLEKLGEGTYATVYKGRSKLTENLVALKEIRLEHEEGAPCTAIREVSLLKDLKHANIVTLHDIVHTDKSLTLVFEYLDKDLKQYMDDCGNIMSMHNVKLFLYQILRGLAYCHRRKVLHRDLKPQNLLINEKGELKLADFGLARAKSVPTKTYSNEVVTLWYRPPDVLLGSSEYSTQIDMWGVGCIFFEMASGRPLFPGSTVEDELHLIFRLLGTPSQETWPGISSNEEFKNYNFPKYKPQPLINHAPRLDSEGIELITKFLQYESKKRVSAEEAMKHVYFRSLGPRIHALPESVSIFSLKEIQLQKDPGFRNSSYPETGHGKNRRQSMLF
Serine/threonine-protein kinase D3 (Homo sapiens), sequence (O94806 whole entry): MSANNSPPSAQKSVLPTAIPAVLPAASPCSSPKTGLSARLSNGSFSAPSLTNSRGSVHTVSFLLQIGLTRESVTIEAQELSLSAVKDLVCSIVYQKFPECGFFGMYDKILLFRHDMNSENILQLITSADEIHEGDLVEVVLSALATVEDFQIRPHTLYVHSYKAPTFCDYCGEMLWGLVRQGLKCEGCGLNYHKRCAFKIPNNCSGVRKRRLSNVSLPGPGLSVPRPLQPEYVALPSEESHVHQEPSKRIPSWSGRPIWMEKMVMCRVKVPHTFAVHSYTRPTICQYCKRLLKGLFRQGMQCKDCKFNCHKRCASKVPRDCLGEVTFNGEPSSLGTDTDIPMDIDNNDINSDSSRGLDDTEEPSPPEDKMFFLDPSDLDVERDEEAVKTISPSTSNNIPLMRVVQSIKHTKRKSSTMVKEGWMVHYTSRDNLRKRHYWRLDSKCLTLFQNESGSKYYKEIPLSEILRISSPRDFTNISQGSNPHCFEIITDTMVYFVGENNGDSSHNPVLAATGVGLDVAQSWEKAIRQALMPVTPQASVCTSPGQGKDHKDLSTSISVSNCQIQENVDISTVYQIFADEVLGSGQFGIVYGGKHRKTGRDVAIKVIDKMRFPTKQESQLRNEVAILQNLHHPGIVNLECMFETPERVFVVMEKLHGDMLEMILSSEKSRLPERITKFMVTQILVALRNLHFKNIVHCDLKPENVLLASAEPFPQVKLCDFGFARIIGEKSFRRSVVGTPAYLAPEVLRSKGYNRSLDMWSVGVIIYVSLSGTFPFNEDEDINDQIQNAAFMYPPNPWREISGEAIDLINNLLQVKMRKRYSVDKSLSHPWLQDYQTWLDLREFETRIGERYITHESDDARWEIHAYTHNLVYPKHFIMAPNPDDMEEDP
Ephrin type-A receptor 1 (Homo sapiens), sequence (P21709 whole entry): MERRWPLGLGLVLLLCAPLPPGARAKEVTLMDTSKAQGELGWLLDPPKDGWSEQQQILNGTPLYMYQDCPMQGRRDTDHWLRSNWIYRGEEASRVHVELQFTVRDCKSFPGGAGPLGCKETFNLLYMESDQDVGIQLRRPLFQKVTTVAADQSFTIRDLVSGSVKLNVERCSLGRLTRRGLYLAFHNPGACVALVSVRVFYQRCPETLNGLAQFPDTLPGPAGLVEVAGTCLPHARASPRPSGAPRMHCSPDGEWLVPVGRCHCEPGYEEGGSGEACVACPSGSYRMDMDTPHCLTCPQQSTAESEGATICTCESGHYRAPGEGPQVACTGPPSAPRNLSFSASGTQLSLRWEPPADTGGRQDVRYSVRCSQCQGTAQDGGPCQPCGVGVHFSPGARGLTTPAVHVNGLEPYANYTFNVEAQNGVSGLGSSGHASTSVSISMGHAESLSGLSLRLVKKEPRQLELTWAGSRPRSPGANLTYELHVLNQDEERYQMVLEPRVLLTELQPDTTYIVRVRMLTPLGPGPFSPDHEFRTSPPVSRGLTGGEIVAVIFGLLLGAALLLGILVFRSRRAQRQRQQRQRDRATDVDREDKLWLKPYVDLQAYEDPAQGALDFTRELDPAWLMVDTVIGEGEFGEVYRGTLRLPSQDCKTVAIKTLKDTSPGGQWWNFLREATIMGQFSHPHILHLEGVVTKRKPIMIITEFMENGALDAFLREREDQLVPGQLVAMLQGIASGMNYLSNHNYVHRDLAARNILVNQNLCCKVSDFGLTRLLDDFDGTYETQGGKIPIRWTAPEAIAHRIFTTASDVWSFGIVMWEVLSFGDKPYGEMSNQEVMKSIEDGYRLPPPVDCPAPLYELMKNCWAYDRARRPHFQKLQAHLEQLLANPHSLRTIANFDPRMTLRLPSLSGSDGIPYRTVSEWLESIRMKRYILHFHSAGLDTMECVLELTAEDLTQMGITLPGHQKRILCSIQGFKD
Ephrin type-A receptor 4 (Homo sapiens), sequence (P54764 whole entry): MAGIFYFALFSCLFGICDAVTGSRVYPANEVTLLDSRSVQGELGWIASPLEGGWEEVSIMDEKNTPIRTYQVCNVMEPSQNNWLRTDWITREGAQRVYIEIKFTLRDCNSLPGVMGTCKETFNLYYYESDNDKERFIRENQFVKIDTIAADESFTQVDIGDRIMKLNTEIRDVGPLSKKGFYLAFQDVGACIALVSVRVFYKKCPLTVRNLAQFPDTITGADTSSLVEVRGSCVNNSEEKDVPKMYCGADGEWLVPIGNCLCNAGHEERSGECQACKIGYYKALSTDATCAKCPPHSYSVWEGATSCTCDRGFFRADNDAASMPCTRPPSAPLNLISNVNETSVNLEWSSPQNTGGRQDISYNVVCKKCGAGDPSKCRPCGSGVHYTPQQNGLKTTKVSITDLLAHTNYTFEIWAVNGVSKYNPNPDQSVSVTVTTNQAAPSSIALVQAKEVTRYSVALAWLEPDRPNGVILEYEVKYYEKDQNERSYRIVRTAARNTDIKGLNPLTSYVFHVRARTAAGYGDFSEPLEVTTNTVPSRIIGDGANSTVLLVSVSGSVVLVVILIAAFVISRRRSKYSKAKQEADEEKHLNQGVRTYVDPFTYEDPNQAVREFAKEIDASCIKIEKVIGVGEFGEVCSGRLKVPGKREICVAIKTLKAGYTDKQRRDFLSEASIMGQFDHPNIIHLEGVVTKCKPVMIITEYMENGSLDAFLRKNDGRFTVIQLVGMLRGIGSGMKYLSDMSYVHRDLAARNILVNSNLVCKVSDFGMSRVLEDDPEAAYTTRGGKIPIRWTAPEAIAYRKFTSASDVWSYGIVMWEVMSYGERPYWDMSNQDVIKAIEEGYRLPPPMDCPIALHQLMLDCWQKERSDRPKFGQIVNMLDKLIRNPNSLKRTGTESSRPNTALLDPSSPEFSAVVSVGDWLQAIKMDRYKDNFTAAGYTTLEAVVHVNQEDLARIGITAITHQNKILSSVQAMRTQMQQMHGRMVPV
Serine/threonine-protein kinase OSR1 (Homo sapiens), sequence (O95747 2-527 limits assumed): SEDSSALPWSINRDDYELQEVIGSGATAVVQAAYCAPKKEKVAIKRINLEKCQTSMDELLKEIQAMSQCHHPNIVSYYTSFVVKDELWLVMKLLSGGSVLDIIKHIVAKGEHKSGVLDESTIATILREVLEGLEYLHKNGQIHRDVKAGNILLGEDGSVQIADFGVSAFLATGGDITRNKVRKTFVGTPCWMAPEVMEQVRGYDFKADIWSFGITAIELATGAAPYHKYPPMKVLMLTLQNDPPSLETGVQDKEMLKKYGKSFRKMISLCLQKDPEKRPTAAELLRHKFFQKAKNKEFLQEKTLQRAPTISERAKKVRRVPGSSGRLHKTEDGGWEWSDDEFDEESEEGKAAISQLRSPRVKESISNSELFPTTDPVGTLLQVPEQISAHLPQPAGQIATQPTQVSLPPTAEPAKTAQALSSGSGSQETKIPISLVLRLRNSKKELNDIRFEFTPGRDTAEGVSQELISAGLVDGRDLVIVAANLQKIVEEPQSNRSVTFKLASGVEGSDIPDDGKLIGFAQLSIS
Activin receptor type-2A (Homo sapiens), sequence (P27037 whole entry): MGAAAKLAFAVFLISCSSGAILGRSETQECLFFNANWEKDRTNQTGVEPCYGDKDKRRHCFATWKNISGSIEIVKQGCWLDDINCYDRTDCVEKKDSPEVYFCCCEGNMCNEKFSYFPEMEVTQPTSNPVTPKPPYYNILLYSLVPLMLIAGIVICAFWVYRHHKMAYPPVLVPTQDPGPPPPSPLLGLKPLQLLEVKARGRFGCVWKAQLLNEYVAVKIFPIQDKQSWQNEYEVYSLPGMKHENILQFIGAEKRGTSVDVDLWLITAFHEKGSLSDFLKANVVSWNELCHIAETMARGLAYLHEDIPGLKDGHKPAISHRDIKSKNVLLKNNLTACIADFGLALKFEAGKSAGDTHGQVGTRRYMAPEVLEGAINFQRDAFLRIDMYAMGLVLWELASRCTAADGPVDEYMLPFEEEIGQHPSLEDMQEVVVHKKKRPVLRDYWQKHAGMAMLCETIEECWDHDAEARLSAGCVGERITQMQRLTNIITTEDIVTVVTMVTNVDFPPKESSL

O=S(=O)(NC1CCC(c2cc(F)ccc2F)(S(=O)(=O)c2ccc(Cl)cc2)CC1)C(F)(F)F (configuration not stated) [MRK-560]
IC50 [1]: 0.00065 µM (active)
residual activity [2]: 63%
residual activity [3]: 100%
residual activity [4]: 100%
residual activity [5]: 100%
residual activity [6]: 93%
residual activity [7]: 100%
residual activity [8]: 68%
residual activity [9]: 100%
residual activity [10]: 0%
residual activity [11]: 87%
residual activity [12]: 85%
residual activity [13]: 96%
residual activity [14]: 100%
residual activity [15]: 100%
residual activity [16]: 100%
residual activity [17]: 100%
residual activity [18]: 95%
residual activity [19]: 100%
residual activity [20]: 100%
residual activity [21]: 100%
residual activity [22]: 85%
residual activity [23]: 74%
residual activity [24]: 100%
residual activity [25]: 100%
residual activity [26]: 93%
residual activity [27]: 67%
residual activity [28]: 100%
residual activity [29]: 100%
residual activity [30]: 69%
residual activity [31]: 100%
residual activity [32]: 100%
residual activity [33]: 98%
residual activity [34]: 100%
residual activity [35]: 100%
residual activity [36]: 91%
residual activity [37]: 100%
residual activity [38]: 100%
residual activity [39]: 100%
residual activity [40]: 100%
residual activity [41]: 84%
residual activity [42]: 96%
residual activity [43]: 92%

CC(C)(C)OC(=O)N1CCCC1CNC1CCC(c2cc(F)ccc2F)(S(=O)(=O)c2ccc(Cl)cc2)CC1 (configuration not stated) [GSI-NC]
Ki ([44]; read-out: Ki): 0.826 µM
Ki ([44]; read-out: pKi (converted)): 0.851 µM
Ki [45]: 3.79 µM
Ki [46]: 0.237 µM
